Columns and labels:
Type in all cases: in vivo
[1] = system: sicklepod (Cassia obtusifolia, CASOB); experiment: Post-emerge test, greenhouse herbicide activity screening; conditions: post-emerge, 14 days after application, rating scale 0-100
Method in brief: (§1)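 Compounds in acetone were track-sprayed at 15–1000 g ai/ha: pre-emergence onto soil sown the previous day, then top-watered to incorporate and later bottom-watered; post-emergence onto 2–3 leaf plants with 0.25% v/v surfactant, bottom-watered only. Ratings on a 0–100 phytotoxicity scale were taken at day 14.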

[2] = system: lambsquarters (Chenopodium album, CHEAL); experiment: as above; conditions: post-emerge, 14 days after application, rating scale 0-100
Method in brief: as §1

[3] = system: redroot pigweed (Amaranthus retroflexus, AMARE); experiment: as above; conditions: post-emerge, 14 days after application, rating scale 0-100
Method in brief: as §1

[4] = system: velvetleaf (Abutilon theophrasti, ABUTH); experiment: as above; conditions: post-emerge, 14 days after application, rating scale 0-100
Method in brief: as §1

[5] = system: ivyleaf morningglory (Ipomoea hederacea, IPOHE); experiment: as above; conditions: post-emerge, 14 days after application, rating scale 0-100
Method in brief: as §1

[6] = system: johnsongrass (Sorghum halepense, SORHA); experiment: as above; conditions: post-emerge, 14 days after application, rating scale 0-100
Method in brief: as §1

[7] = system: barnyardgrass (Echinochloa crus-galli, ECHCG); experiment: as above; conditions: post-emerge, 14 days after application, rating scale 0-100
Method in brief: as §1

[8] = system: green foxtail (Setaria viridis, SETVI); experiment: as above; conditions: post-emerge, 14 days after application, rating scale 0-100
Method in brief: as §1

[9] = system: large crabgrass (Digitaria sanguinalis, DIGSA); experiment: as above; conditions: post-emerge, 14 days after application, rating scale 0-100
Method in brief: as §1

[10] = system: field corn (Zea mays L., var. Dekalb 535, CORN); experiment: Pre-emerge test, crop safety; conditions: rated 14 days after application, 0 = no damage, 100 = complete death
Method in brief: (§2)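 Fourteen days after spraying, crop and weed injury was graded visually from 0, no effect, to 100, every plant dead. Test substances were dissolved in acetone and applied at 15–1000 g ai/ha with a flat-fan nozzle. Application was either pre-emergence, one day after sowing, or post-emergence at the 2–3 leaf stage.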

[11] = system: upland rice (Oryza sp., var. Tebonnet, RICE); experiment: Pre-emerge test, crop safety; conditions: rated 14 days after application, 0 = no damage, 100 = complete death
Method in brief: as §2

[12] = system: field corn (Zea mays L., var. Dekalb 535, CORN); experiment: Post-emerge test, crop safety; conditions: post-emerge, 14 days after application, rating scale 0-100
Method in brief: (§3)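 Applied at 15–1000 g ai/ha from acetone in 187 l/ha spray volume. Post-emergence applications included 0.25% v/v non-ionic surfactant and reached plants sown 8–21 days before. Pre-emergence applications were incorporated by surface watering. Efficacy or crop damage was rated on a 0–100 scale after 14 days.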

[13] = system: upland rice (Oryza sp., var. Tebonnet, RICE); experiment: Post-emerge test, crop safety; conditions: post-emerge, 14 days after application, rating scale 0-100
Method in brief: as §3

[14] = system: sicklepod (Cassia obtusifolia, CASOB); experiment: Pre-emerge test, greenhouse herbicide activity screening; conditions: rated 14 days after application, 0 = no damage, 100 = complete death
Method in brief: as §3

[15] = system: lambsquarters (Chenopodium album, CHEAL); experiment: as above; conditions: rated 14 days after application, 0 = no damage, 100 = complete death
Method in brief: as §3

[16] = system: velvetleaf (Abutilon theophrasti, ABUTH); experiment: as above; conditions: rated 14 days after application, 0 = no damage, 100 = complete death
Method in brief: as §3

[17] = system: ivyleaf morningglory (Ipomoea hederacea, IPOHE); experiment: as above; conditions: rated 14 days after application, 0 = no damage, 100 = complete death
Method in brief: as §3

[18] = system: johnsongrass (Sorghum halepense, SORHA); experiment: as above; conditions: rated 14 days after application, 0 = no damage, 100 = complete death
Method in brief: as §3

[19] = system: barnyardgrass (Echinochloa crus-galli, ECHCG); experiment: as above; conditions: rated 14 days after application, 0 = no damage, 100 = complete death
Method in brief: as §3

[20] = system: green foxtail (Setaria viridis, SETVI); experiment: as above; conditions: rated 14 days after application, 0 = no damage, 100 = complete death
Method in brief: as §3

[21] = system: large crabgrass (Digitaria sanguinalis, DIGSA); experiment: as above; conditions: rated 14 days after application, 0 = no damage, 100 = complete death
Method in brief: as §3

[22] = system: redroot pigweed (Amaranthus retroflexus, AMARE); experiment: as above; conditions: rated 14 days after application, 0 = no damage, 100 = complete death
Method in brief: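 Sandy loam pots; pre-emerge: sown 1 d pre-spray, surface-watered after, then bottom-watered. Post-emerge: sown 8–21 d before, 2–3 leaf stage, + 0.25% v/v NIS, bottom-watered. Acetone, 187 l/ha track spray, 15–1000 g ai/ha. 0–100 injury score, day 14.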

COc1c(Cl)cc(F)c(-n2c(=O)cc(C(F)(F)F)n(C)c2=O)c1NC(=O)C=Cc1ccccc1Cl [2-82]
phytotoxicity rating CASOB ([1]; 63 g ai/ha): 100 | phytotoxicity rating CASOB ([1]; 250 g ai/ha): 100 | phytotoxicity rating CHEAL ([2]; 63 g ai/ha): 90 | phytotoxicity rating CHEAL ([2]; 250 g ai/ha): 90 | phytotoxicity rating AMARE ([3]; 63 g ai/ha): 100 | phytotoxicity rating AMARE ([3]; 250 g ai/ha): 100 | phytotoxicity rating ABUTH ([4]; 63 g ai/ha): 100 | phytotoxicity rating ABUTH ([4]; 250 g ai/ha): 100 | phytotoxicity rating IPOHE ([5]; 63 g ai/ha): 60 | phytotoxicity rating IPOHE ([5]; 250 g ai/ha): 90 | phytotoxicity rating SORHA ([6]; 63 g ai/ha): 0 | phytotoxicity rating SORHA ([6]; 250 g ai/ha): 30 | phytotoxicity rating ECHCG ([7]; 63 g ai/ha): 20 | phytotoxicity rating ECHCG ([7]; 250 g ai/ha): 30 | phytotoxicity rating SETVI ([8]; 63 g ai/ha): 40 | phytotoxicity rating SETVI ([8]; 250 g ai/ha): 50 | phytotoxicity rating DIGSA ([9]; 63 g ai/ha): 0 | phytotoxicity rating DIGSA ([9]; 250 g ai/ha): 30 | Pre-emerge phytotoxicity rating (0-100), crop damage, CORN ([10]; 63 g ai/ha): 0 | Pre-emerge phytotoxicity rating (0-100), crop damage, CORN ([10]; 250 g ai/ha): 0 | Pre-emerge phytotoxicity rating (0-100), crop damage, RICE ([11]; 63 g ai/ha): 10 | Pre-emerge phytotoxicity rating (0-100), crop damage, RICE ([11]; 250 g ai/ha): 10 | phytotoxicity rating CORN ([12]; 63 g ai/ha): 10 | phytotoxicity rating CORN ([12]; 250 g ai/ha): 25 | phytotoxicity rating RICE ([13]; 63 g ai/ha): 50 | phytotoxicity rating RICE ([13]; 250 g ai/ha): 40 | Pre-emerge Herbicidal Activity, phytotoxicity rating (0-100), CASOB ([14]; 63 g ai/ha): 80 | Pre-emerge Herbicidal Activity, phytotoxicity rating (0-100), CASOB ([14]; 250 g ai/ha): 100 | Pre-emerge Herbicidal Activity, phytotoxicity rating (0-100), CHEAL ([15]; 63 g ai/ha): 100 | Pre-emerge Herbicidal Activity, phytotoxicity rating (0-100), CHEAL ([15]; 250 g ai/ha): 100 | Pre-emerge Herbicidal Activity, phytotoxicity rating (0-100), ABUTH ([16]; 63 g ai/ha): 100 | Pre-emerge Herbicidal Activity, phytotoxicity rating (0-100), ABUTH ([16]; 250 g ai/ha): 100 | Pre-emerge Herbicidal Activity, phytotoxicity rating (0-100), IPOHE ([17]; 63 g ai/ha): 0 | Pre-emerge Herbicidal Activity, phytotoxicity rating (0-100), IPOHE ([17]; 250 g ai/ha): 0 | Pre-emerge Herbicidal Activity, phytotoxicity rating (0-100), SORHA ([18]; 63 g ai/ha): 0 | Pre-emerge Herbicidal Activity, phytotoxicity rating (0-100), SORHA ([18]; 250 g ai/ha): 20 | Pre-emerge Herbicidal Activity, phytotoxicity rating (0-100), ECHCG ([19]; 63 g ai/ha): 0 | Pre-emerge Herbicidal Activity, phytotoxicity rating (0-100), ECHCG ([19]; 250 g ai/ha): 0 | Pre-emerge Herbicidal Activity, phytotoxicity rating (0-100), SETVI ([20]; 63 g ai/ha): 80 | Pre-emerge Herbicidal Activity, phytotoxicity rating (0-100), SETVI ([20]; 250 g ai/ha): 100 | Pre-emerge Herbicidal Activity, phytotoxicity rating (0-100), DIGSA ([21]; 63 g ai/ha): 30 | Pre-emerge Herbicidal Activity, phytotoxicity rating (0-100), DIGSA ([21]; 250 g ai/ha): 80 | Pre-emerge Herbicidal Activity, phytotoxicity rating (0-100), AMARE ([22]; 63 g ai/ha): 100 | Pre-emerge Herbicidal Activity, phytotoxicity rating (0-100), AMARE ([22]; 250 g ai/ha): 100
